Results: patent publication US20240209445A1, “A CONTINUOUS METRIC TO MEASURE ENDOTYPE AND CORTICOSTEROID INTERACTION IN SEPTIC SHOCK” (CHILDREN'S HOSPITAL MEDICAL CENTER, priority 2021, published 2024)

Experiment: Validation in adult cohort of the VANISH trial randomized to hydrocortisone or placebo (n=97)
Assay type: in vivo, human
Conditions: adult VANISH subset; controlled for illness severity using the APACHE score; lower Z values
Protocol: The model was also tested using a publicly available transcriptomic data set from the Vasopressin vs. Norepinephrine as Initial Therapy for Septic Shock (VANISH) trial (9, 23). The VANISH trial compared the efficacy of vasopressin to norepinephrine as initial vasopressor therapy for septic shock among adults. Patients who reached a prespecified dose of either vasopressor were further randomized to receive hydrocortisone or placebo. Details of the procedures for assigning the cohort randomized to hydrocortisone or placebo to pediatric endotypes A or B were previously described (10, 15).
The findings above were further validated using a subset of adult subjects from the VANISH trial who were randomized to placebo or hydrocortisone, and for whom there existed publicly available transcriptomic data (n=97). […] The model supports that separation between groups treated with hydrocortisone and those treated with placebo occurs as the Z value decreases.

C[C@]12CCC(=O)C=C1CC[C@@H]1[C@@H]2[C@@H](O)C[C@@]2(C)[C@H]1CC[C@]2(O)C(=O)CO [hydrocortisone]
Odds of death at 28 days by hydrocortisone exposure and Z value: no hydrocortisone exposure and lower Z values tended to have lower odds of death at 28 days
